Assay results taken from publication PMC9756503, “Pharmacodynamic properties for inhibition of cAMP- and cGMP elimination by pentoxifylline remain unaltered in vitro during hypothermia” (Scandinavian Journal of Trauma, Resuscitation and Emergency …, 2022).
Read-outs that look alike come from different tables or passages of the source.

Columns and labels:
Recombinant human PDE3 = experiment: Inhibition of PDE3-mediated enzymatic breakdown of cAMP; assay type: biochemical; settings: for Ki: Cheng-Prusoff; for [PDE3-inhibition]/[PDE5-inhibition] / [PDE3-inhibition]/[cAMP-efflux inhibition]: ratio between IC50-values
Description: (§1) Assessment of pentoxifyllines ability to inhibit the phosphodiesterase enzymes were performed by incubating cAMP or cGMP with seven different concentrations of pentoxifylline. The concentrations were increasing by a factor of 10 ranging from 1.00 nM to 1.00 mM. For PDE3 assessment, the incubation solution included cAMP and for PDE5 assessment it included cGMP. Experiments were performed in triplicates each day at three separate days - in total 9 parallels. The reaction was started by adding either a solution containing 0.016 units/µg protein of PDE3 (Abcam, Cambridge UK), or 0.022 units/µg protein of PDE5 (Sigma-Aldrich, St. Louis, USA), to the Eppendorf tubes. Control samples were free of drug and was either with or without PDE3 or PDE5. This was done to assure that only the relevant PDE was responsible for breakdown of the cyclic nucleotide, as no other enzyme nor cellular material was added to the incubations. The incubation time was 30 min. Reaction was stopped by adding methanol to the tubes. Internal standard of cGMP/GMP or cAMP/AMP (Sigma-Aldrich, St. Louis, MO, USA, Germany and Toronto Research Chemicals Inc., Ontario, Canada) were added to each sample. 5 samples contained only known concentrations of cGMP/GMP or cAMP/AMP and served as calibrators. Samples were analyzed for cGMP/GMP and cAMP/AMP content, using MS [14, 15].
Quantification of cAMP/AMP, cGMP/GMP and pentoxifylline in PDE- and intracellular access experiments were performed with liquid chromatography tandem mass spectrometry (LC–MS/MS). Preparation of samples for LC–MS/MS-analysis is described in paragraphs above.
(§2) Analysis and graph production were performed in SigmaPlot 14.0 (Systat Software, San Jose, CA, USA.). Ability to inhibit the different elimination pathways, enzymes and efflux pumps, were calculated as IC50-values, as according to Chou. Ki-values were obtained by using the methods described by Cheng and Prustoff. Measurement of intracellular concentrations of drugs were adjusted for protein concentrations in each sample. The incubation concentrations were also adjusted for protein concentration in each sample to evaluate the access in percentage. […] The same analysis was performed for intracellular concentrations of pentoxifylline during hypothermia compared to baseline (37 °C). When data was not normally distributed ANOVA on ranks and Dunn`s post hoc test was performed. Data are presented as mean ± standard error of the mean (SEM). p-values were considered significant when < 0.05.

Recombinant human PDE5 = biological target: T1, Recombinant human PDE5 (Homo sapiens, UniProt O76074); experiment: Inhibition of PDE5-mediated enzymatic breakdown of cGMP; assay type: biochemical; settings: for Ki: Cheng-Prusoff; for [PDE5-inhibition]/[cGMP-efflux inhibition]: ratio between IC50-values
T1 construct: purchased Sigma-Aldrich
Description: as §1
Quantification of cAMP/AMP, cGMP/GMP and pentoxifylline in PDE- and intracellular access experiments were performed with liquid chromatography tandem mass spectrometry (LC–MS/MS). Preparation of samples for LC–MS/MS-analysis is described in paragraphs above. […] For GMP the method was linear from 2 nM to at least 2000 nM (r^2 > 0.998), and 10 nM to at least 5000 nM for pentoxifylline (r^2 > 0.998).
Analysis and graph production were performed in SigmaPlot 14.0 (Systat Software, San Jose, CA, USA.). Ability to inhibit the different elimination pathways, enzymes and efflux pumps, were calculated as IC50-values, as according to Chou. Ki-values were obtained by using the methods described by Cheng and Prustoff. Measurement of intracellular concentrations of drugs were adjusted for protein concentrations in each sample. The incubation concentrations were also adjusted for protein concentration in each sample to evaluate the access in percentage. Analysis of variance (ANOVA) with Holm-Sidak multiple comparison post-hoc test was performed to evaluate changes in IC50-values compared to baseline (37 °C) for all elimination pathways. The same analysis was performed for intracellular concentrations of pentoxifylline during hypothermia compared to baseline (37 °C). When data was not normally distributed ANOVA on ranks and Dunn`s post hoc test was performed. Data are presented as mean ± standard error of the mean (SEM). p-values were considered significant when < 0.05.

ABCC4 = biological target: T2, ABCC4 (Homo sapiens, UniProt O15439); experiment: biochemical; assay type: biochemical; settings: for Ki: Cheng-Prusoff, read-out: Ki for inhibition of cAMP-efflux; for [cAMP-efflux inhibition]/[cGMP-efflux inhibition]: ratio between IC50-values; for IC50: read-out: IC50 for inhibition of cAMP-efflux
T2 construct: inside-out vesicles (IOV)s where erythrocytes from healthy, human donors were sampled; endogenous in cells; host or cells: inside-out vesicles from erythrocytes of healthy human donors
T2 sequence (O15439 1-1325): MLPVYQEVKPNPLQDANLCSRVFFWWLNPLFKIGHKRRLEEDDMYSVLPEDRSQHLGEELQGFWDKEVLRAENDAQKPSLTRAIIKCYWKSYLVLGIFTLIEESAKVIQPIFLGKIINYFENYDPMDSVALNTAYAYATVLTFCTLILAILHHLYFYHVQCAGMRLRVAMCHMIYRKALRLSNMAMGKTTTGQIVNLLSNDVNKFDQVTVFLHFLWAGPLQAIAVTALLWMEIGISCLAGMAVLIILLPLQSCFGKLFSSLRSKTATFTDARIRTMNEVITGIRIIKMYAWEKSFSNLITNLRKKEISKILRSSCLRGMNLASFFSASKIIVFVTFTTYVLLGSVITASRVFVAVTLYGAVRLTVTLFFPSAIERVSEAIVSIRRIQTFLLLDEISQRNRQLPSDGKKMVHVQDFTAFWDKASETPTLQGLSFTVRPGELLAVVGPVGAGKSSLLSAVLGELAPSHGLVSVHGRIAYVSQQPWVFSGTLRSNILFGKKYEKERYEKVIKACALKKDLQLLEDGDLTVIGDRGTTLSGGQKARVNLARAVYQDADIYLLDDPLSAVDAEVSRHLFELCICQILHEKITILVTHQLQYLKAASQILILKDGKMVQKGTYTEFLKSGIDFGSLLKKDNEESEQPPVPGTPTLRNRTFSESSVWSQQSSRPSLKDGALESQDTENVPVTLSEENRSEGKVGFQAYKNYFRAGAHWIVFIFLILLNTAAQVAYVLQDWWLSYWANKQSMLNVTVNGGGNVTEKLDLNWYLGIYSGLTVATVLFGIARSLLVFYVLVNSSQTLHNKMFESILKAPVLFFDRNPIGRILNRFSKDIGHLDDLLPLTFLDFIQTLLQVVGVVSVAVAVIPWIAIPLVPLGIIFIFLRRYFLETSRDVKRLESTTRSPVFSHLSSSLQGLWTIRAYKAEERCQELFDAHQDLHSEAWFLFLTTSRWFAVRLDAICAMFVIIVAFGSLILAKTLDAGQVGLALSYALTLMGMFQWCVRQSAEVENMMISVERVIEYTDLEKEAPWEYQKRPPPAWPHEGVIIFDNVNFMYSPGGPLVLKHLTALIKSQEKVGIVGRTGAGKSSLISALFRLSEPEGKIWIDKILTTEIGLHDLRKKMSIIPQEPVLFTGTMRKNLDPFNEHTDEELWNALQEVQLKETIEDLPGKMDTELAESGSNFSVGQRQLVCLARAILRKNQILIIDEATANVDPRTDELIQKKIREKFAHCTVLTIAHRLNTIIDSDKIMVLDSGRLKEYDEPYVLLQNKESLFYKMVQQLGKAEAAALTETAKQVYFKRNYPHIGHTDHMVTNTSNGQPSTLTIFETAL
Description: (§3) Cellular efflux was estimated with inside-out vesicles (IOV)s where erythrocytes from healthy, human donors were sampled. Donors were pre-screened and only admitted as donors by Blodbanken UNN (Department of Immunohematology and Transfusion Medicine, University Hospital of North Norway) if they were healthy. The erythrocytes were separated from plasma by centrifugation and washed. Inside-out vesicles were prepared according to Orvoll et al. with minor modifications. Percentage IOV was verified using acetylcholinesterase accessibility test. Batches of IOVs used in the parallels were made 8 times, including blood from a total of 35 healthy donors.
(§4) IOVs were then incubated with or without 2 mM ATP and 7 different concentrations of pentoxifylline increasing by a factor of 10 ranging from 1.00 nM to 1.00 mM. The incubation solutions also included radioactive labeled [^3H]-cGMP or [^3H]-cAMP (Perkin Elmer, Boston, MA, USA), at a concentration of respectively 2 µM and 20 µM. [^3H]-cAMP was used to assess ABCC4-inhibition and [^3H]-cGMP for ABCC5-inhibition. The assays were performed in triplicates at 3 different days: In total 9 parallels were performed to calculate results for each concentration of pentoxifylline at all temperatures. Incubation time of 60 min was chosen to ensure sufficient quality of the samples for each parallel. The transport was stopped by adding ice cold buffer. The IOVs were then filtered through a nitrocellulose membrane (Bio-Rad Laboratories, Feldkirchen Germany), and the membrane was dried. The dried membranes were later added scintillation fluid and radioactivity was measured using a Packard TopCount NXT (Packard, Downers Grove, IL, USA).
as §2

[1] = parameters: method as in PMID 26870389; settings: review on cardiovascular effects; cited from earlier work
ABCC5 = biological target: T3, ABCC5 (Homo sapiens, UniProt O15440); experiment: Inhibition of [3H]-cGMP efflux in erythrocyte inside-out vesicles; assay type: biochemical; settings: for Ki: Cheng-Prusoff
T3 construct: inside-out vesicles (IOV)s where erythrocytes from healthy, human donors were sampled; endogenous in cells; host or cells: inside-out vesicles from erythrocytes of healthy human donors
T3 sequence (O15440 whole entry): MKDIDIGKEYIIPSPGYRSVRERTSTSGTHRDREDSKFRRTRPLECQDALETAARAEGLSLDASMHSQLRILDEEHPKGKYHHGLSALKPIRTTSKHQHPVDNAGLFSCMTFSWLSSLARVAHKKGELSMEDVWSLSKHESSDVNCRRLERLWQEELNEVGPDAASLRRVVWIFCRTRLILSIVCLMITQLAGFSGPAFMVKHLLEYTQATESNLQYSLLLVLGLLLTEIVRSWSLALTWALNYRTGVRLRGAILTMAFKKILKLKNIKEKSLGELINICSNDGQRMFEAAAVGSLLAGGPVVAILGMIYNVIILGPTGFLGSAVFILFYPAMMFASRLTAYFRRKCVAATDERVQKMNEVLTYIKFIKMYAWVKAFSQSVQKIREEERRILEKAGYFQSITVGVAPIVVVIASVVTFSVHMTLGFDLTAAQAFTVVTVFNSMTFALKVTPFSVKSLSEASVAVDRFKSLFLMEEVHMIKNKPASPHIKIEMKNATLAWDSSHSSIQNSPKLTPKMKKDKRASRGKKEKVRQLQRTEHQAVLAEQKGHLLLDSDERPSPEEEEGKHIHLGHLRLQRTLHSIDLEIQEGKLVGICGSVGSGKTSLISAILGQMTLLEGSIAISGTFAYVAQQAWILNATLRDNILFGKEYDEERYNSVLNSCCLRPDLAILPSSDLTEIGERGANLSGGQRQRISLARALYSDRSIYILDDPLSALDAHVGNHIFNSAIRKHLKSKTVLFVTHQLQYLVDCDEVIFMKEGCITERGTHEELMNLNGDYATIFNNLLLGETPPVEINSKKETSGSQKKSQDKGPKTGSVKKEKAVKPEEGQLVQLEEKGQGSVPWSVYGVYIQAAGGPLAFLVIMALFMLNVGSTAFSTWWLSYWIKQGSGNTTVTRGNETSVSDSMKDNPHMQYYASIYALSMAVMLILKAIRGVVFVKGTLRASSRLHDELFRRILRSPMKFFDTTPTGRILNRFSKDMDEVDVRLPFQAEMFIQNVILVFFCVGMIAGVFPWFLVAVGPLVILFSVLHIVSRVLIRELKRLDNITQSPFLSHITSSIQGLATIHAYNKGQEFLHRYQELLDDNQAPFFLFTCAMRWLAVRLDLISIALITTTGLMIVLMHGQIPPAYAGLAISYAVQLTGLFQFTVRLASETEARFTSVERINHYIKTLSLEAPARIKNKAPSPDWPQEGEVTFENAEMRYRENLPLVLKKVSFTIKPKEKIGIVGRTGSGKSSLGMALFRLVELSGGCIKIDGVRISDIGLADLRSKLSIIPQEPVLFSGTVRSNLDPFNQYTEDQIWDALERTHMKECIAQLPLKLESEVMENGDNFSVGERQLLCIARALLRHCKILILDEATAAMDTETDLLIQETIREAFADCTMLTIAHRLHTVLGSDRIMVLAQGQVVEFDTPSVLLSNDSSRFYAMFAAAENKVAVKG
Description: as §3, §4, §2

## CC(=O)CCCCn1c(=O)c2c(ncn2C)n(C)c1=O [pentoxifylline]
Recombinant human PDE3; 20 °C
  IC50: 31 ± 9.47 µM
  Ki: 1.42 ± 0.434 µM
  [PDE3-inhibition]/[PDE5-inhibition]: 0.788
Recombinant human PDE3; 24 °C
  IC50: 29.2 ± 4.72 µM
  Ki: 1.34 ± 0.216 µM
  [PDE3-inhibition]/[PDE5-inhibition]: 1.16
Recombinant human PDE3; 28 °C
  IC50: 22.4 ± 6.36 µM
  Ki: 1.02 ± 0.291 µM
  [PDE3-inhibition]/[PDE5-inhibition]: 0.920
  [PDE3-inhibition]/[cAMP-efflux inhibition]: 11.6
Recombinant human PDE3; 32 °C
  IC50: 26.7 ± 4.7 µM
  Ki: 1.22 ± 0.215 µM
  [PDE3-inhibition]/[PDE5-inhibition]: 1.72
  [PDE3-inhibition]/[cAMP-efflux inhibition]: 13.3
Recombinant human PDE3; 34 °C
  IC50: 14.2 ± 1.51 µM
  Ki: 0.651 ± 0.069 µM
  [PDE3-inhibition]/[PDE5-inhibition]: 1.33
  [PDE3-inhibition]/[cAMP-efflux inhibition]: 3.94
Recombinant human PDE3; 37 °C
  IC50: 15.8 ± 4.25 µM
  Ki: 0.723 ± 0.195 µM
  [PDE3-inhibition]/[PDE5-inhibition]: 2.05
  [PDE3-inhibition]/[cAMP-efflux inhibition]: 11.9
Recombinant human PDE5; 20 °C
  IC50: 39.4 ± 10.9 µM
  Ki: 10 ± 2.78 µM
  [PDE5-inhibition]/[cGMP-efflux inhibition]: 102
Recombinant human PDE5; 24 °C
  IC50: 25.2 ± 6.57 µM
  Ki: 6.4 ± 1.67 µM
  [PDE5-inhibition]/[cGMP-efflux inhibition]: 50.2
Recombinant human PDE5; 28 °C
  IC50: 24.3 ± 5.58 µM
  Ki: 6.17 ± 1.42 µM
  [PDE5-inhibition]/[cGMP-efflux inhibition]: 28.6
Recombinant human PDE5; 32 °C
  IC50: 15.5 ± 0.753 µM
  Ki: 3.94 ± 0.191 µM
  [PDE5-inhibition]/[cGMP-efflux inhibition]: 21.4
Recombinant human PDE5; 34 °C
  IC50: 10.7 ± 1.92 µM
  Ki: 2.71 ± 0.487 µM
  [PDE5-inhibition]/[cGMP-efflux inhibition]: 12.0
Recombinant human PDE5; 37 °C
  IC50: 7.7 ± 0.265 µM
  Ki: 1.95 ± 0.067 µM
  [PDE5-inhibition]/[cGMP-efflux inhibition]: 14.5
ABCC4; 28 °C
  Ki: 0.918 ± 0.465 µM
  [cAMP-efflux inhibition]/[cGMP-efflux inhibition]: 2.27
  IC50: 1.93 ± 1.11 µM
ABCC4; 32 °C
  Ki: 1.16 ± 0.526 µM
  [cAMP-efflux inhibition]/[cGMP-efflux inhibition]: 2.78
  IC50: 2.01 ± 0.819 µM
ABCC4; 34 °C
  Ki: 2.03 ± 1.46 µM
  [cAMP-efflux inhibition]/[cGMP-efflux inhibition]: 4.04
  IC50: 3.61 ± 2.59 µM
ABCC4; 37 °C
  Ki: 0.805 ± 0.343 µM
  [cAMP-efflux inhibition]/[cGMP-efflux inhibition]: 2.50
  IC50: 1.33 ± 0.566 µM
ABCC4; temperatures below 28 °C (24 and 20 °C)
  Inhibition of cAMP-efflux (ABCC4-activity): no inhibition
[1]
  clinical serum concentrations: 1 to 10 µM
ABCC5; 20 °C
  IC50: 0.388 ± 0.07 µM
ABCC5; 24 °C
  IC50: 0.502 ± 0.315 µM
  Ki: 0.32 ± 0.183 µM
ABCC5; 28 °C
  IC50: 0.851 ± 0.281 µM
  Ki: 0.481 ± 0.159 µM
ABCC5; 32 °C
  IC50: 0.724 ± 0.206 µM
  Ki: 0.409 ± 0.116 µM
ABCC5; 34 °C
  IC50: 0.893 ± 0.401 µM
  Ki: 0.505 ± 0.226 µM
ABCC5; 37 °C
  IC50: 0.531 ± 0.338 µM
  Ki: 0.3 ± 0.191 µM
